Data: US11566007B2, “Ras inhibitors” (Revolution Medicines, Inc., priority 2019, dated 2023)
Like-named read-outs stand apart in the source and are kept apart here.

Assays:
Type in all cases: biochemical
[1] = target: K-Ras G13C (Homo sapiens (Human), UniProt P01116+P62937, G13C); test: Ras-Raf (BRAF RBD) disruption / FRET / MOA assay, KRAS G13C; details: KRAS G13C, Ras-Raf disruption/FRET/MOA assay
Method in brief: (§1)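 Compound-driven ternary complex of nucleotide-loaded Ras with cyclophilin A, disrupting BRAF RBD binding. 10-point 3-fold dilution from 30 μM final, 3 h at 25° C, then anti-His Eu-W1024 (10 nM) and anti-GST allophycocyanin (50 nM) for 1.5 h. IC50 from TR-FRET ratio decrease versus DMSO.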

[2] = target: KRAS G12S (Homo sapiens (Human), UniProt P01116+P62937, G12S); test: Ras-Raf (BRAF RBD) disruption / FRET / MOA assay, KRAS G12S; details: class symbols
Chain of KRAS G12S (P01116-2 other isoform, or with tags, fused parts or gaps G12S): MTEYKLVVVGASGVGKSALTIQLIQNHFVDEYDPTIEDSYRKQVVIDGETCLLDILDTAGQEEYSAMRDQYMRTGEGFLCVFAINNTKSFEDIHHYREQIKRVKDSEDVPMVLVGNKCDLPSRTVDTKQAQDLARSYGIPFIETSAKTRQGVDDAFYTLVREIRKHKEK
Chain of KRAS G12S (P62937 whole entry): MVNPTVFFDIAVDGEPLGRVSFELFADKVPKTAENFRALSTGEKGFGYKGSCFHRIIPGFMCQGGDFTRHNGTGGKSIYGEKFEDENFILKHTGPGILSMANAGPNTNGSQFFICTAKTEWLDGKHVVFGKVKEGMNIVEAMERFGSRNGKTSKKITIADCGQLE
Method in brief: as §1

[3] = target: KRAS G12D (Homo sapiens (Human), UniProt P01116+P62937, G12D); test: Ras-Raf (BRAF RBD) disruption / FRET / MOA assay, KRAS G12D; details: class symbols
Chain of KRAS G12D (P01116-2 other isoform, or with tags, fused parts or gaps G12D): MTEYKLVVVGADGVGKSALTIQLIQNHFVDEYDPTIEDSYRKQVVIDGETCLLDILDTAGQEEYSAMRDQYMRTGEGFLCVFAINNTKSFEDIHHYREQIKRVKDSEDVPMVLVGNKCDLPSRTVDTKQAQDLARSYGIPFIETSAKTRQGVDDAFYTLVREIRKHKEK
Chain of KRAS G12D (P62937 whole entry): as the sequence (P62937 whole entry) above
Method in brief: as §1

[4] = target: KRAS WT (Homo sapiens (Human), UniProt P01116+P62937); test: Ras-Raf (BRAF RBD) disruption / FRET / MOA assay, KRAS WT
Chain of KRAS WT (P01116-2 other isoform, or with tags, fused parts or gaps): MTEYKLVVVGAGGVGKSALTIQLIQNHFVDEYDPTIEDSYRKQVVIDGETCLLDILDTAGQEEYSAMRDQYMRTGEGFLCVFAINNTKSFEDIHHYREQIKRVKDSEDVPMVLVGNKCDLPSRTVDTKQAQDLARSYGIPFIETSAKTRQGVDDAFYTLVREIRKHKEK
Chain of KRAS WT (P62937 whole entry): as the sequence (P62937 whole entry) above
Method in brief: as §1

[5] = target: KRAS G13D (Homo sapiens (Human), UniProt P01116+P62937, G13D); test: Ras-Raf (BRAF RBD) disruption / FRET / MOA assay, KRAS G13D
Chain of KRAS G13D (P01116-2 other isoform, or with tags, fused parts or gaps G13D): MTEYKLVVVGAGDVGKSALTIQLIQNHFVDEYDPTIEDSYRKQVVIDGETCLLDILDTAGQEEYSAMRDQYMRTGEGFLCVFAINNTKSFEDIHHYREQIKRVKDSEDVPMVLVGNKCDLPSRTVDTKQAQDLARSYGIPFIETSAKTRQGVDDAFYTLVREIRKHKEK
Chain of KRAS G13D (P62937 whole entry): as the sequence (P62937 whole entry) above
Method in brief: as §1

[6] = target: KRAS Q61H (Homo sapiens (Human), UniProt P01116+P62937, Q61H); test: Ras-Raf (BRAF RBD) disruption / FRET / MOA assay, KRAS Q61H; details: Ras-Raf disruption/FRET/MOA assay; class symbols; read-out: KRAS Q61H FRET data IC50
Chain of KRAS Q61H (P01116-2 other isoform, or with tags, fused parts or gaps Q61H): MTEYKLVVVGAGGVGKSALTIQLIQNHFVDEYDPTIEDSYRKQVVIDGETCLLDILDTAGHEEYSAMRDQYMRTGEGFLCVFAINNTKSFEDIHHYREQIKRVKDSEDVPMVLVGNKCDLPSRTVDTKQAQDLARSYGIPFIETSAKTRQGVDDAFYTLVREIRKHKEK
Chain of KRAS Q61H (P62937 whole entry): as the sequence (P62937 whole entry) above
Method in brief: (§2)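 Compounds (30 μM top final, 10-point 3-fold dilutions) incubated 3 h at 25° C with nucleotide-loaded Ras, cyclophilin A and BRAF RBD. Detection with 10 nM anti-His Eu-W1024 and 50 nM anti-GST allophycocyanin over another 1.5 h. Lowered TR-FRET ratio relative to DMSO wells gives IC50.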

[7] = target: NRAS Q61K (Homo sapiens (Human), UniProt P01111+P62937, Q61K); test: Ras-Raf (BRAF RBD) disruption / FRET / MOA assay, NRAS Q61K; details: NRAS Q61K; Ras-Raf disruption/FRET/MOA assay; read-out: IC50* NRAS Q61K FRET data
Chain of NRAS Q61K (P01111 whole entry Q61K): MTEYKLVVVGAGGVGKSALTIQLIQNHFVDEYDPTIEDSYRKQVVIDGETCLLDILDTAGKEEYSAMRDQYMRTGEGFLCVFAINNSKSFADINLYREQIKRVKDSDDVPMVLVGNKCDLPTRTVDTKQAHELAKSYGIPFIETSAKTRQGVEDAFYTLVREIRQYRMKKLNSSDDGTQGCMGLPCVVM
Chain of NRAS Q61K (P62937 whole entry): as the sequence (P62937 whole entry) above
Method in brief: as §2

[8] = read-out: IC50* KRAS G13C FRET data
[9] = Ras-Raf disruption/FRET/MOA assay, read-out: KRAS G12S FRET data IC50
[10] = Ras-Raf disruption/FRET/MOA assay, read-out: KRAS G12D FRET data IC50
[11] = read-out: IC50* KRAS WT FRET data
[12] = read-out: IC50* KRAS G13D FRET data

Chain of K-Ras G13C (P01116-2 other isoform, or with tags, fused parts or gaps G13C): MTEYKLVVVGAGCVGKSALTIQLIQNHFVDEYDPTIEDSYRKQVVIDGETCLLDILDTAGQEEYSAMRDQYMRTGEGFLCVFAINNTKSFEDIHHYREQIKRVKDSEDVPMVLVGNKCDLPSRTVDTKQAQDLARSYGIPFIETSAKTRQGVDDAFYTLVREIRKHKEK
Chain of K-Ras G13C (P62937 whole entry): as the sequence (P62937 whole entry) above

Compound | IC50 [1, 8] | IC50 [2, 9] | IC50 [3, 10] | IC50 [4, 11] | IC50 [5, 12] | IC50 [6] | IC50 [7] | IC50 ([1]; IC50* KRAS G13C FRET data) | IC50 ([2]; KRAS G12S FRET data IC50, Ras-Raf disruption/FRET/MOA assay) | IC50 ([3]; KRAS G12D FRET data IC50, Ras-Raf disruption/FRET/MOA assay) | IC50 ([4]; IC50* KRAS WT FRET data) | IC50 ([5]; IC50* KRAS G13D FRET data)
C=CC(=O)N1CC[C@H](C(=O)N(C)[C@H](C(=O)N[C@H]2Cc3coc(n3)-c3ccc4c(c3)c(c(-c3cccnc3[C@H](C)OC)n4CC)CC(C)(C)COC(=O)[C@@H]3CCCN(N3)C2=O)C(C)C)C1 (atropisomer, axis not shown) [Example A468] | 1000 to 10000 nM | 1000 to 10000 nM | > 10000 nM | 1000 to 10000 nM | 1000 to 10000 nM | 100 to 1000 nM | 1000 to 10000 nM |  |  |  |  | 
C=CC(=O)N1CCN(C(=O)N(C)[C@H](C(=O)N[C@H]2Cc3nc(cs3)-c3ccc4c(c3)c(c(-c3cccnc3[C@H](C)OC)n4CC)CC(C)(C)COC(=O)[C@@H]3CCCN(N3)C2=O)C(C)C)CC1 (atropisomer, axis not shown) [Example A491] | 10 to 100 nM | 10 to 100 nM | 100 to 1000 nM | 10 to 100 nM | 100 to 1000 nM | 10 to 100 nM | 10 to 100 nM |  |  |  |  | 
C=CC(=O)N1CC[C@H](C(=O)N(C)[C@H](C(=O)N[C@H]2Cc3nc(cs3)-c3ccc4c(c3)c(c(-c3cccnc3[C@H](C)OC)n4CC(F)(F)F)CC(C)(C)COC(=O)[C@@H]3CCCN(N3)C2=O)C(C)C)C1 (atropisomer, axis not shown) [Example A502] | 100 to 1000 nM | 100 to 1000 nM | 1000 to 10000 nM | 1000 to 10000 nM | 1000 to 10000 nM | 100 to 1000 nM | 100 to 1000 nM |  |  |  |  | 
C=CC(=O)N1CC[C@H](C(=O)N(C)[C@H](C(=O)N[C@H]2Cc3cc(CF)cc(c3)-c3ccc4c(c3)c(c(-c3cccnc3[C@H](C)OC)n4CC)CC(C)(C)COC(=O)[C@@H]3CCCN(N3)C2=O)C(C)C)C1 (atropisomer, axis not shown) [Example A503] | 100 to 1000 nM | 1000 to 10000 nM | 1000 to 10000 nM | 1000 to 10000 nM | 1000 to 10000 nM | 100 to 1000 nM | 1000 to 10000 nM |  |  |  |  | 
C=CC(=O)N1CC[C@H](C(=O)N(C)[C@H](C(=O)N[C@H]2Cc3cccc(c3)-c3ccc4c(c3)c(c(-c3cc(CN(C)C)cnc3[C@H](C)OC)n4CC)CC(C)(C)COC(=O)[C@@H]3CCCN(N3)C2=O)C(C)C)C1 (atropisomer, axis not shown) [Example A522] | 1000 to 10000 nM | 1000 to 10000 nM | > 10000 nM | 1000 to 10000 nM | 1000 to 10000 nM | 100 to 1000 nM | 1000 to 10000 nM |  |  |  |  | 
C=CC(=O)N1CCO[C@H]2CN(C(=O)N(C)[C@H](C(=O)N[C@H]3Cc4cc(C(F)F)cc(n4)-c4ccc5c(c4)c(c(-c4cccnc4[C@H](C)OC)n5CC(F)(F)F)CC(C)(C)COC(=O)[C@@H]4CCCN(N4)C3=O)C(C)C)C[C@H]21 (atropisomer, axis not shown) [Example A540] |  |  |  |  |  | 100 to 1000 nM | 1000 to 10000 nM | 10 to 100 nM | 1000 to 10000 nM | > 10000 nM | 1000 to 10000 nM | 1000 to 10000 nM
C=CC(=O)N1CCO[C@@H]2CN(C(=O)N(C)[C@H](C(=O)N[C@H]3Cc4nc(cs4)-c4ccc5c(c4)c(c(-c4cccnc4[C@H](C)OC)n5CC)CC(C)(C)COC(=O)[C@@H]4CCCN(N4)C3=O)C(C)C)C[C@H]21 (atropisomer, axis not shown) [Example A543] | 100 to 1000 nM | 100 to 1000 nM | 1000 to 10000 nM | 100 to 1000 nM | 100 to 1000 nM | 10 to 100 nM | 10 to 100 nM |  |  |  |  | 
C=CC(=O)N1CCO[C@H]2CN(C(=O)N(C)[C@H](C(=O)N[C@H]3Cc4nc(cs4)-c4ccc5c(c4)c(c(-c4cccnc4[C@H](C)OC)n5CC)CC(C)(C)COC(=O)[C@@H]4CCCN(N4)C3=O)C(C)C)C[C@@H]21 (atropisomer, axis not shown) [Example A544] | 100 to 1000 nM | 100 to 1000 nM | 1000 to 10000 nM | 100 to 1000 nM | 100 to 1000 nM | 10 to 100 nM | 10 to 100 nM |  |  |  |  | 
C=CC(=O)N1CCOC2(CCN(C(=O)N(C)[C@H](C(=O)N[C@H]3Cc4nsc(n4)-c4ccc5c(c4)c(c(-c4cccnc4[C@H](C)OC)n5CC)CC(C)(C)COC(=O)[C@@H]4CCCN(N4)C3=O)C(C)C)CC2)C1 (atropisomer, axis not shown) [Example A545] | 10 to 100 nM | 100 to 1000 nM | 1000 to 10000 nM | 100 to 1000 nM | 100 to 1000 nM | 10 to 100 nM | 10 to 100 nM |  |  |  |  | 
C=CC(=O)N1CC[C@@H]2[C@H]1CN2C(=O)N(C)[C@H](C(=O)N[C@H]1Cc2nc(cs2)-c2ccc3c(c2)c(c(-c2cccnc2[C@H](C)OC)n3CC)CC(C)(C)COC(=O)[C@@H]2CCCN(N2)C1=O)C(C)C (atropisomer, axis not shown) [Example A546] | 10 to 100 nM | 1000 to 10000 nM | 1000 to 10000 nM | 1000 to 10000 nM | 1000 to 10000 nM | 100 to 1000 nM | 100 to 1000 nM |  |  |  |  | 
CCn1c(-c2cccnc2[C@H](C)OC)c2c3cc(ccc31)-c1cccc(c1)C[C@H](NC(=O)[C@H](C(C)C)N1CC[C@@]3(CCN(C(=O)C#C[C@H]4COCCN4C)C3)C1=O)C(=O)N1CCC[C@H](N1)C(=O)OCC(C)(C)C2 (atropisomer, axis not shown) [Example A551] | 100 to 1000 nM | 1000 to 10000 nM | 1000 to 10000 nM | 1000 to 10000 nM | 1000 to 10000 nM | 100 to 1000 nM | 1000 to 10000 nM |  |  |  |  | 
CCn1c(-c2cccnc2[C@H](C)OC)c2c3cc(ccc31)-c1cccc(c1)C[C@H](NC(=O)[C@H](C(C)C)N1CO[C@@]3(CCN(C(=O)/C=C/CN(C)C)C3)C1=O)C(=O)N1CCC[C@H](N1)C(=O)OCC(C)(C)C2 (atropisomer, axis not shown) [Example A558] | 100 to 1000 nM | 100 to 1000 nM | 1000 to 10000 nM | 100 to 1000 nM | 100 to 1000 nM | 100 to 1000 nM | 1000 to 10000 nM |  |  |  |  | 
CO[C@@H](COC1CN(C(=O)C#CC(C)(C)N(C)C)C1)C(=O)N[C@H]1Cc2coc(n2)-c2ccc3c(c2)c(c(-c2cccnc2[C@H](C)OC)n3CC(F)(F)F)CC(C)(C)COC(=O)[C@@H]2CCCN(N2)C1=O (atropisomer, axis not shown) [Example A579] | 1000 to 10000 nM | 1000 to 10000 nM | > 10000 nM | 1000 to 10000 nM | > 10000 nM | 1000 to 10000 nM | > 10000 nM |  |  |  |  | 
C=CC(=O)N1CCO[C@H]2CCN(C(=O)N(C)[C@H](C(=O)N[C@H]3Cc4nc(cs4)-c4ccc5c(c4)c(c(-c4cccnc4[C@H](C)OC)n5CC)CC(C)(C)COC(=O)[C@@H]4CCCN(N4)C3=O)C(C)C)C[C@H]21 (atropisomer, axis not shown) [Example A580] | 100 to 1000 nM | 100 to 1000 nM | 1000 to 10000 nM | 100 to 1000 nM | 100 to 1000 nM | 10 to 100 nM | 10 to 100 nM |  |  |  |  | 
C=CC(=O)NCCN1CCN(C(=O)N(C)[C@H](C(=O)N[C@H]2Cc3nc(cs3)-c3ccc4c(c3)c(c(-c3cccnc3[C@H](C)OC)n4CC)CC(C)(C)COC(=O)[C@@H]3CCCN(N3)C2=O)C(C)C)CC1 (atropisomer, axis not shown) [Example A582] | 100 to 1000 nM | 100 to 1000 nM | 1000 to 10000 nM | 100 to 1000 nM | 100 to 1000 nM | 10 to 100 nM | 10 to 100 nM |  |  |  |  | 
CCn1c(-c2cccnc2[C@H](C)OC)c2c3cc(ccc31)-c1cccc(c1)C[C@H](NC(=O)[C@@H](CO[C@@H]1CCN(C(=O)C#CC(C)(C)N(C)C)C1)C(C)C)C(=O)N1CCC[C@H](N1)C(=O)OCC(C)(C)C2 (atropisomer, axis not shown) [Example A584] | 1000 to 10000 nM | > 10000 nM | > 10000 nM | > 10000 nM | > 10000 nM | 1000 to 10000 nM | > 10000 nM |  |  |  |  | 
CCn1c(-c2cccnc2[C@H](C)OC)c2c3cc(ccc31)-c1cc(CF)cc(c1)C[C@H](NC(=O)[C@@H](COC1CN(C(=O)C#CC(C)(C)N(C)C)C1)C(C)C)C(=O)N1CCC[C@H](N1)C(=O)OCC(C)(C)C2 (atropisomer, axis not shown) [Example A587] | > 10000 nM | > 10000 nM | > 10000 nM | > 10000 nM | > 10000 nM | > 10000 nM | > 10000 nM |  |  |  |  | 
CO[C@@H](C)c1ncccc1-c1c2c3cc(ccc3n1CC(F)(F)F)-c1cc(CF)cc(c1)C[C@H](NC(=O)[C@@H](COC1CN(C(=O)C#CC(C)(C)N(C)C)C1)C(C)C)C(=O)N1CCC[C@H](N1)C(=O)OCC(C)(C)C2 (atropisomer, axis not shown) [Example A589] | 1000 to 10000 nM | > 10000 nM | > 10000 nM | 1000 to 10000 nM | > 10000 nM | 1000 to 10000 nM | > 10000 nM |  |  |  |  | 
